Assay results taken from US20260001928A1 (CORTERIA PHARMACEUTICALS, priority 2022, published 2026).
*1 amine or outer side, *2 acyl side, *3 side chain or, on linkers, in order; H or OH if unused. Where a SMILES comes first, the peptide text is derived from it. Side-chain parts run from the residue outwards. [ ]: non-standard residue; d: D form. The star is where a group is joined. C20 diacid = O=C(O)CCCCCCCCCCCCCCCCCCC(=O)*; γGlu = O=C(O)[C@H](CCC(=O)[*:2])N[*:1]; Decanoyl = CCCCCCCCCC(=O)*; Pentanoyl = CCCCC(=O)*; AEEA = NCCOCCOCC(=O)O; Aib = CC(C)(N)C(=O)O

Assays:
human CRF2a receptor = target: T1, human CRF2a receptor (Homo sapiens, UniProt Q13324); experiment: Activity at human CRF2a receptor, cAMP functional assay in TeloHEAC cells; assay type: cell-based; conditions: TeloHEAC cells stably expressing human CRF2a receptor, relative to urocortin 2 (100 nM = 100%)
T1 construct: expressed in transfected cells; host or cells: TeloHEAC cells
T1 sequence (Q13324 1-411): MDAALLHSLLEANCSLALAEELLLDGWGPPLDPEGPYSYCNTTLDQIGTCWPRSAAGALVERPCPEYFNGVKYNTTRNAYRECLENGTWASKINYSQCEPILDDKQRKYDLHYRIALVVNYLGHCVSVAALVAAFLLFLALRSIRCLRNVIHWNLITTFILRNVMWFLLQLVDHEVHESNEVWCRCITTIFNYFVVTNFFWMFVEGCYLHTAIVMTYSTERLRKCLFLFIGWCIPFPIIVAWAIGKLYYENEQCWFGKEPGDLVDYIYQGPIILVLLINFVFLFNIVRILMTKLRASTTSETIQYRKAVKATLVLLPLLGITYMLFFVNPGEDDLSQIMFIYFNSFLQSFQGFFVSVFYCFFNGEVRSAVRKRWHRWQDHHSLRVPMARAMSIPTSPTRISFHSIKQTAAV
Method in brief: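 TeloHEAC cells stably expressing human CRF2a (10000 cells/well, suspended in HBSS/20 mM HEPES with 2 mM IBMX) were exposed to compounds for 30 min at 37 °C. cAMP was read as the 665/620 nm fluorescence ratio after 1 h at room temperature. EC50 was derived relative to 100 nM urocortin 2, set as 100%.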

CFR1R receptor = target: T2, CFR1R receptor (Homo sapiens, UniProt P34998); experiment: Activity at anti-target CFR1R receptor, cAMP assay in CRF1R-overexpression CHO-K1 cells; assay type: cell-based; conditions: 100% = Sauvagine at 100 nM
T2 construct: host or cells: CHO-K1 (clone 2)
T2 sequence (P34998 24-415): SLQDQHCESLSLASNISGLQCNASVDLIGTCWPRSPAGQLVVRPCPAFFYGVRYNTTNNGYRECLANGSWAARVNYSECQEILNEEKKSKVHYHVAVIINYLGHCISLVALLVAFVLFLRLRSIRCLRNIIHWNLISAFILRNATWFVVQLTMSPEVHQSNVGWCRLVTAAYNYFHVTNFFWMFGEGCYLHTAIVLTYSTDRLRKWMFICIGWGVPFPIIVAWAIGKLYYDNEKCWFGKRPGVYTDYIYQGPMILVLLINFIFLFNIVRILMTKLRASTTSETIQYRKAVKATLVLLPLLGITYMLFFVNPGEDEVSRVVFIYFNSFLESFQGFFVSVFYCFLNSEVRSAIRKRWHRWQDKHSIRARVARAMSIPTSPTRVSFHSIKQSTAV
Method in brief: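 Signal is normalised to 100 nM Sauvagine, taken as 100% activation, in clone 2 cells plated at a final 4000 cells/well from frozen stocks.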

[1] = In vitro subcutaneous tissue supernatant (SCts) stability and metabolite identification, rat; assay type: in vitro ADME; parameters: remaining at 2 h: dose or concentration left out as unconfirmed; conditions: male, Sprague Dawley; rat subcutaneous tissue supernatant (SCts), 37° C, 2 h
[2] = Chemical stability in buffer (pH 7.4 / pH 4.5), % purity loss; assay type: physicochemical; conditions: 40° C. vs 5° C., 14 or 28 days; for Buffer stability pH 7.4 % purity loss: 100 mM phosphate buffer pH 7.4
Method in brief: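 Compounds dissolved at 10 mg/mL target in 100 mM phosphate (pH 7.4) or 100 mM acetate (pH 4.5) buffer for 1 h at room temperature, then centrifuged. Diluted supernatant stored at 5 °C or 40 °C for 14 or 28 days; % purity loss by LC-UV.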

[3] = Pharmacokinetics in male Sprague Dawley rats after subcutaneous administration; assay type: in vivo; conditions: plasma, rat, SC
Sprague Dawley rats = experiment: Effect on systolic blood pressure, telemetry in Sprague Dawley rats; assay type: in vivo, rat; conditions: 0.1 mg/kg SC; for Systolic blood pressure (Mean) % change from baseline, 8 h / Systolic blood pressure (Mean) % change from baseline, 12 h / Systolic blood pressure (Mean) % change from baseline, 24 h: n=2; for Duration of action: last time point with an effect on BP still observed
Method in brief: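 Sprague Dawley rats with abdominal-aorta telemetry catheters, recovered ≥10 days, received 0.1 mg/kg SC of compound or vehicle. Systolic pressure recorded 1 h pre-dose as baseline, then continuously up to 48 hours, expressed as % change from baseline; duration of action is last time point with a BP effect (n=2).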

[4] = Pharmacokinetics in male Sprague Dawley rats after subcutaneous administration; assay type: in vivo; conditions: plasma, rat

Row | EC50 (human CRF2a receptor) | Emax (% I) (CFR1R receptor) | remaining at 2 h [1] | Buffer stability pH 7.4 % purity loss [2] | AUC(0-t) ([3]; 0.05 mg/kg) | Cmax ([3]; 0.05 mg/kg) | Tmax ([3]; 0.05 mg/kg) | half-life ([3]; 0.05 mg/kg) | AUC(0-t) ([4]; IV, 0.025 mg/kg) | half-life ([4]; IV, 0.025 mg/kg) | Structure (SMILES) | Systolic blood pressure (Mean) % change from baseline, 8 h (Sprague Dawley rats) | Systolic blood pressure (Mean) % change from baseline, 12 h (Sprague Dawley rats) | Systolic blood pressure (Mean) % change from baseline, 24 h (Sprague Dawley rats) | Duration of action (Sprague Dawley rats) | other results
1 | 0.16 nM | 48 % I | 71% | −2.1/Not Tested % |  |  |  |  |  |  | CCCCC(=O)N[C@H](C(=O)N[C@@H](CC(C)C)C(=O)N[C@@H](CO)C(=O)N[C@@H](CC(C)C)C(=O)N[C@@H](CC(=O)O)C(=O)N[C@@H](C(=O)N1CCC[C@H]1C(=O)N[C@H](C(=O)N[C@@H](CCCCN)C(=O)N[C@@H](CC(C)C)C(=O)N[C@@H](CCCCNC(=O)CC[C@H](NC(=O)CCCCCCCCCCCCCCCCCCC(=O)O)C(=O)O)C(=O)N[C@@H](CCCCN)C(=O)N[C@H](C(=O)N[C@@H](CC(C)C)C(=O)N[C@@H](CC(C)C)C(=O)N[C@@H](CCC(=O)O)C(=O)N[C@@H](CCC(N)=O)C(=O)N[C@@H](CCC(=O)O)C(=O)N[C@@H](CCCCN)C(=O)N[C@@H](CCC(N)=O)C(=O)N[C@@H](CCCCN)C(=O)N[C@@H](CCCCN)C(=O)N[C@@H](CCC(N)=O)C(=O)N[C@@H](CCCNC(=N)N)C(=O)N[C@@H](CCC(=O)O)C(=O)N[C@@H](CCC(N)=O)C(=O)N[C@@H](C)C(=O)N[C@@H](CCC(=O)O)C(=O)N[C@H](C(=O)N[C@@H](CC(N)=O)C(=O)NC(C)(C)C(=O)N[C@@H](CCC(N)=O)C(=O)N[C@H](C(=O)N[C@@H](CC(C)C)C(=O)N[C@@H](C)C(=O)N[C@@H](CCC(N)=O)C(=O)N[C@H](C(N)=O)C(C)C)[C@@H](C)CC)[C@@H](C)O)[C@@H](C)CC)[C@@H](C)CC)C(C)C)C(C)C [compound 219] (Pentanoyl-VLSLD[dV]PIKLK([γGlu-C20 diacid])KILLEQEKQKKQREQAETN[Aib]QILAQV-NH2) | −10% | −13% | −10% | >24 h | AUC(0-t) ([3]; 0.1 mg/kg): 4520 ng·h/mL; Cmax ([3]; 0.1 mg/kg): 156 ng/mL; AUC(0-t) ([4]; IV, 0.05 mg/kg): 5320 ng·h/mL; half-life ([4]; IV, 0.05 mg/kg): 360 min; Tmax ([4]; SC, 0.1 mg/kg): 8 h; half-life ([4]; SC, 0.1 mg/kg): 900 min
2 | 0.14 nM | 50 % I | 62% | 0.0/Not Tested % | 2890 ng·h/mL | 113 ng/mL | 8 h | 720 min | 3320 ng·h/mL | 420 min | CCCCC(=O)N[C@H](C(=O)N[C@@H](CC(C)C)C(=O)N[C@@H](CO)C(=O)N[C@@H](CC(C)C)C(=O)N[C@@H](CC(=O)O)C(=O)N[C@@H](C(=O)N1CCC[C@H]1C(=O)N[C@H](C(=O)N[C@@H](CCCCN)C(=O)N[C@@H](CC(C)C)C(=O)N[C@@H](CCCCNC(=O)CC[C@H](NC(=O)CCCCCCCCCCCCCCCCCCC(=O)O)C(=O)O)C(=O)N[C@@H](CCCCN)C(=O)N[C@H](C(=O)N[C@@H](CC(C)C)C(=O)N[C@@H](CC(C)C)C(=O)N[C@@H](CCC(=O)O)C(=O)N[C@@H](CCC(N)=O)C(=O)N[C@@H](CCC(=O)O)C(=O)N[C@@H](CCCCN)C(=O)N[C@@H](CCC(N)=O)C(=O)N[C@@H](CCCCN)C(=O)N[C@@H](C)C(=O)N[C@@H](CCC(N)=O)C(=O)N[C@@H](CCCNC(=N)N)C(=O)N[C@@H](CCC(=O)O)C(=O)N[C@@H](CCC(N)=O)C(=O)N[C@@H](C)C(=O)N[C@@H](CCC(=O)O)C(=O)N[C@H](C(=O)N[C@@H](CC(N)=O)C(=O)NC(C)(C)C(=O)N[C@@H](CCC(N)=O)C(=O)N[C@H](C(=O)N[C@@H](CC(C)C)C(=O)N[C@@H](C)C(=O)N[C@@H](CCC(N)=O)C(=O)N[C@H](C(N)=O)C(C)C)[C@@H](C)CC)[C@@H](C)O)[C@@H](C)CC)[C@@H](C)CC)C(C)C)C(C)C [compound 222] (Pentanoyl-VLSLD[dV]PIKLK([γGlu-C20 diacid])KILLEQEKQKAQREQAETN[Aib]QILAQV-NH2) |  |  |  |  | 
3 | 0.08 nM | 58 % I | 79% | −0.1/Not Tested % | 698 ng·h/mL | 67 ng/mL | 2 h | 390 min | 1920 ng·h/mL | 168 min | CCCCCCCCCC(=O)N[C@H](C(=O)N[C@@H](CC(C)C)C(=O)N[C@@H](CO)C(=O)N[C@@H](CC(C)C)C(=O)N[C@@H](CC(=O)O)C(=O)N[C@@H](C(=O)N1CCC[C@H]1C(=O)N[C@H](C(=O)N[C@@H](CCCCN)C(=O)N[C@@H](CC(C)C)C(=O)N[C@@H](CCCCNC(=O)CC[C@H](NC(=O)CCCCCCCCCCCCCCCCCCC(=O)O)C(=O)O)C(=O)N[C@@H](CCCCN)C(=O)N[C@H](C(=O)N[C@@H](CC(C)C)C(=O)N[C@@H](CC(C)C)C(=O)N[C@@H](CCC(=O)O)C(=O)N[C@@H](CCC(N)=O)C(=O)N[C@@H](CCC(=O)O)C(=O)N[C@@H](CCCCN)C(=O)N[C@@H](CCC(N)=O)C(=O)N[C@@H](CCCCN)C(=O)N[C@@H](CCCCN)C(=O)N[C@@H](CCC(N)=O)C(=O)N[C@@H](CCCNC(=N)N)C(=O)N[C@@H](CCC(=O)O)C(=O)N[C@@H](CCC(N)=O)C(=O)N[C@@H](C)C(=O)N[C@@H](CCC(=O)O)C(=O)N[C@H](C(=O)N[C@@H](CC(N)=O)C(=O)NC(C)(C)C(=O)N[C@@H](CCC(N)=O)C(=O)N[C@H](C(=O)N[C@@H](CC(C)C)C(=O)N[C@@H](C)C(=O)N[C@@H](CCC(N)=O)C(=O)N[C@H](C(N)=O)C(C)C)[C@@H](C)CC)[C@@H](C)O)[C@@H](C)CC)[C@@H](C)CC)C(C)C)C(C)C [compound 223] (Decanoyl-VLSLD[dV]PIKLK([γGlu-C20 diacid])KILLEQEKQKKQREQAETN[Aib]QILAQV-NH2) |  |  |  |  | 
4 | 0.16 nM | 27 % I | 66% | 0.0% |  |  |  |  | 4510 ng·h/mL | 480 min | CCCCC(=O)N[C@H](C(=O)N[C@@H](CC(C)C)C(=O)N[C@@H](CO)C(=O)N[C@@H](CC(C)C)C(=O)N[C@@H](CC(=O)O)C(=O)N[C@@H](C(=O)N1CCC[C@H]1C(=O)N[C@H](C(=O)N[C@@H](CCCCN)C(=O)N[C@@H](CC(C)C)C(=O)N[C@@H](CCCCNC(=O)COCCOCCNC(=O)CC[C@H](NC(=O)CCCCCCCCCCCCCCCCCCC(=O)O)C(=O)O)C(=O)N[C@@H](CCCCN)C(=O)N[C@H](C(=O)N[C@@H](CC(C)C)C(=O)N[C@@H](CC(C)C)C(=O)N[C@@H](CCC(=O)O)C(=O)N[C@@H](CCC(N)=O)C(=O)N[C@@H](CCC(=O)O)C(=O)N[C@@H](CCCCN)C(=O)N[C@@H](CCC(N)=O)C(=O)N[C@@H](CCCCN)C(=O)N[C@@H](CCCCN)C(=O)N[C@@H](CCC(N)=O)C(=O)N[C@@H](CCCNC(=N)N)C(=O)N[C@@H](CCC(=O)O)C(=O)N[C@@H](CCC(N)=O)C(=O)N[C@@H](C)C(=O)N[C@@H](CCC(=O)O)C(=O)N[C@H](C(=O)N[C@@H](CC(N)=O)C(=O)NC(C)(C)C(=O)N[C@@H](CCC(N)=O)C(=O)N[C@H](C(=O)N[C@@H](CC(C)C)C(=O)N[C@@H](C)C(=O)N[C@@H](CCC(N)=O)C(=O)N[C@H](C(N)=O)C(C)C)[C@@H](C)CC)[C@@H](C)O)[C@@H](C)CC)[C@@H](C)CC)C(C)C)C(C)C [compound 235] (Pentanoyl-VLSLD[dV]PIKLK([AEEA-γGlu-C20 diacid])KILLEQEKQKKQREQAETN[Aib]QILAQV-NH2) | −8% | −7% | −12% | >24 h | EC50 (CFR1R receptor; cAMP): > 250 nM; Buffer stability pH 4.5 % purity loss ([2]; 100 mM acetate buffer pH 4.5): −1.6%
